Laboratory results taken from article PMC6774960, “Design, synthesis and biological evaluation of a series of new resveratrol analogues as potential anti-cancer agents” (Royal Society Open Science, 2019).

Experiments:
Type in all cases: cell-based, human
[1] = test system: HepG2 cells; experiment: Cell cycle assay by flow cytometry; settings: 24 h, mean ± s.d.
Protocol: To evaluate the effects of compound r on cell cycle progression of HepG2, cells were treated with compound r at different concentrations (0, 5, 15 and 45 µM) for 24 h and then examined by flow cytometry. The accumulation of cells in S phase increased with increasing concentration of compound r. Approximately 18.36 ± 1.93%, 19.39 ± 2.06%, 29.9 ± 0.87% and 34.24 ± 1.00% of cells were arrested in S phase in response to 0, 5, 15 and 45 µM compound r, respectively. In comparison, 39.56 ± 0.97% cells were arrested in S phase after treatment with 20 µM cisplatin for 24 h.
Figure 5. Cells treated with 0, 5, 15 and 45 µM compound r for 24 h were collected and analysed by flow cytometry. Images were representative of three independent experiments. Values represented the mean ± s.d.; versus blank, *p < 0.01, **p < 0.001; versus control ^#p < 0.01, ^##p < 0.001.
Cells were treated with compound r (0, 5, 15, 45 µM) or 20 µM of cisplatin as the control for 24 h. Cells were collected by centrifugation (1000 rpm, 5 min), washed with PBS and fixed with 70% ice-cold ethanol overnight at 4°C. The cell cycle was examined on a flow cytometer using a cell cycle analysis kit (Beyotime Biotechnologyin, China) in accordance with the manufacturer's instructions.

[2] = test system: HeLa cells; experiment: MTT anti-proliferation assay, HeLa; settings: 24 h, average of three determinations
Protocol: The 22 synthesized resveratrol compounds were evaluated for anti-proliferative activities against three human cancer cell lines, including HepG2, A549 and HeLa cells, using 3-[4,5-dimethylthiazol-2-yl]-2,5 diphenyl tetrazolium bromide (MTT) assays. Paclitaxel, a well-known tubulin inhibitor, was used as a positive control.
The anti-proliferative and cytotoxicity activity was determined using MTT assay. Human cervical carcinoma HeLa cells, human hepatocellular carcinoma HepG2 cells, human lung carcinoma A549 cells were representative in the anti-proliferation assay, which were obtained from the Shanghai Institute of Cell Biology (Shanghai, China). Normal African green monkey kidney Vero cells were a gift from Dr Xiumiao He at Guangxi University for Nationalities. Normal human hepatocytes LO2 cells were a gift from Dr Xing Lin at Guangxi Medical University. The HepG2, Hela, LO2 and Vero cells were cultured in Dulbecco's modified Eagle's medium (DMEM, Gibco) and the A549 cells were cultured in RPMI1640 (Gibco), both media were supplemented with 10% fetal calf serum and antibiotics (100 IU ml^−1 penicillin, 100 IU ml^−1 streptomycin; Amresco).
After 24 h, cell morphology was observed using a light microscope, and then 20 µl of MTT solution (5 mg ml^−1) was added to the well and incubated for 4 h, then cell survival was determined by measuring the optical density (OD) absorbance at a wavelength of 570 nm using an ELISA microplate reader. […] Cisplatin and paclitaxel were used as positive control drugs.

[3] = test system: HepG2 cells; experiment: Apoptosis analysis, Annexin V-FITC/PI flow cytometry; settings: 24 h
Protocol: To investigate the effect of compound r on the apoptosis of HepG2 cells, cells were treated with different concentrations of compound r (0, 5, 15 and 45 µM) for 24 h and apoptosis was detected by flow cytometry analysis.
Figure 4. Effect of compound r on the apoptosis in HepG2 cells. Analysis of compound r induced apoptosis in HepG2 cells. The HepG2 cells were treated with 0, 5, 15 or 45 µM by flow cytometry. Cells were stained using propidium iodide (IP) and fluorescein isothiocyanate (FITC). The data manifested the percentage of early apoptotic cells (lower right) or late apoptosis and cell death (upper right) in each quadrant. TEXT PRINTED IN THE PICTURE: control: 7.22% (20 μM); 51.10% (20 μM); 18.67% (20 μM); 23.01% (20 μM) | compound r: 10.95% (low (5 μM)); 22.17% (low (5 μM)); 45.61% (low (5 μM)); 21.27% (low (5 μM)); 10.26% (middle (15 μM)); 18.51% (middle (15 μM)); 33.78% (middle (15 μM)); 37.45% (middle (15 μM)); 7.78% (high (45 μM)); 32.94% (high (45 μM)); 28.71% (high (45 μM)); 30.57% (high (45 μM)) DOUBTS OF THE COPYIST ABOUT THIS PICTURE: The quadrant percentages have no printed measure. For each plot they are listed in the order upper left, upper right, lower left, lower right (axes PI vs annexin V FITC). / The blank (0 μM) plot prints 0.00%, 0.01%, 99.91% (faint, partly hidden by dots, uncertain) and 0.08%. It is left out because no substance is present. / control (20 μM): 18.67% and 23.01% are partly overlaid by dots, so the digits are not fully certain. / compound r, low (5 μM): 21.27% is partly overlaid by dots; the first digit could be 2 or 3. 45.61% is in small print. / compound r, middle (15 μM): 33.78% and 37.45% are in small print, so 3/8 are not fully certain. / compound r, high (45 μM): 30.57% is partly overlaid by dots, and 28.71% is in small print. / The label 'compound r' is printed only on the axis of the bar chart. The scatter plots themselves are labelled only low, middle and high.
HepG2 cells seeded in 6-well plates were treated with compound r (0, 5, 15, 45 µM) or cisplatin (20 µM) for 24 h. […] The stained cells were detected via a flow cytometer.

- IC50 [2]: 4.8 ± 0.8 µM
- IC50 ([2]; Homo sapiens, HeLa): 4.79 µM
SMILES: COc1ccc(C(=Cc2cc(C(F)(F)F)ccc2Cl)C(=O)O)cc1 [compound r, 3-(2-chloro-5-(trifluoromethyl)phenyl)-2-(4-methoxyphenyl) acrylic acid]
- cells arrested in S phase ([1]; HepG2, 5 µM): ~19.39 ± 2.06%
- cells arrested in S phase ([1]; HepG2, 15 µM): ~29.9 ± 0.87%
- cells arrested in S phase ([1]; HepG2, 45 µM): ~34.24 ± 1.00%
- apoptotic cell population ([3]; HepG2, 5 µM): 43.44%
- apoptotic cell population ([3]; HepG2, 15 µM): 55.96%
- apoptotic cell population ([3]; HepG2, 45 µM): 63.51%
